Series [1] has as its target T1, Histamine H4 receptor (Homo sapiens, UniProt Q9H3N8). The series can be described thus: Antagonistic activity at human histamine H4 receptor in SK-N-MC cells by inhibition of forskolin-stimulated cAMP-mediated reporter gene activity. The series is classed as functional, cell-based. Particulars: for Kb: read-out: pA2 (converted). (A reporter such as luciferase makes a cellular process visible.)

A short description of series [2]: Half life in rat administered with 2 mg/kg, iv. The following applies: in vivo. Set-up: dose 2 mg/kg, route intravenous. In kind it is ADME, organism-based.
The subject of series [3] is Rattus norvegicus. Description: Maximum concentration in rat administered with 10 mg/kg, po. The series is classed as ADME, organism-based. Set-up: dose 10 mg/kg, route oral. Particulars: in vivo.
Series [4] is described as follows: In vitro half life in rat S9 fraction. The series is classed as ADME, Liver.
Series [5] is described as follows: In vitro half life in human liver microsomes. The series is classed as ADME, Microsome. A general note: Liver microsomes are a subcellular fraction often used to study metabolism.
Series [6] concerns the target T1, Histamine H4 receptor. The series can be described thus: Displacement of [3H]histamine from recombinant human histamine H4 receptor in SK-N-MC cells. In kind it is cell-based.
Series [7] can be described thus: Oral bioavailability in rat administered with 10 mg/kg, po. The series is classed as ADME, organism-based. The following applies: in vivo.
Series [8] in a line: In vitro half life in human S9 fraction. In kind it is ADME, Liver.
A short description of series [9]: In vitro half life in rat liver microsomes. In kind it is ADME, Microsome.
Series [10] in a line: Half life in rat administered with 10 mg/kg, po. The series is classed as ADME, organism-based. Set-up: dose 10 mg/kg, route oral. Particulars: in vivo.
Series [11] concerns Rattus norvegicus. Description: Area under curve in rat administered with 10 mg/kg, po. The series is classed as ADME, organism-based. Set-up: dose 10 mg/kg, route oral. The following applies: in vivo.
The next series concerns the target Histamine H3 receptor (Homo sapiens, UniProt Q9Y5N1). The series can be described thus: Binding affinity to histamine H3 receptor.

A value given as a limit tells only on which side of the number the result lay.

T1 sequence (Q9H3N8 whole entry): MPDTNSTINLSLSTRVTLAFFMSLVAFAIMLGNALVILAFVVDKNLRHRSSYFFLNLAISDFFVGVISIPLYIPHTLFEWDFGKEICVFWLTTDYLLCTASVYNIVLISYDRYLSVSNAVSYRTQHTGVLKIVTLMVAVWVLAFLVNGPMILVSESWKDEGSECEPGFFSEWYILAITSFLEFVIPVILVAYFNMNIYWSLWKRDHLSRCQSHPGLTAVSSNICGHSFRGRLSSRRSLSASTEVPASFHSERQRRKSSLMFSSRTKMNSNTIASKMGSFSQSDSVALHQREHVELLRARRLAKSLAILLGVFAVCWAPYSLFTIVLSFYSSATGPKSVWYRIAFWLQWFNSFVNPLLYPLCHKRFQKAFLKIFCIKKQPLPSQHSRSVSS
Sequence of Histamine H3 receptor (Q9Y5N1 whole entry): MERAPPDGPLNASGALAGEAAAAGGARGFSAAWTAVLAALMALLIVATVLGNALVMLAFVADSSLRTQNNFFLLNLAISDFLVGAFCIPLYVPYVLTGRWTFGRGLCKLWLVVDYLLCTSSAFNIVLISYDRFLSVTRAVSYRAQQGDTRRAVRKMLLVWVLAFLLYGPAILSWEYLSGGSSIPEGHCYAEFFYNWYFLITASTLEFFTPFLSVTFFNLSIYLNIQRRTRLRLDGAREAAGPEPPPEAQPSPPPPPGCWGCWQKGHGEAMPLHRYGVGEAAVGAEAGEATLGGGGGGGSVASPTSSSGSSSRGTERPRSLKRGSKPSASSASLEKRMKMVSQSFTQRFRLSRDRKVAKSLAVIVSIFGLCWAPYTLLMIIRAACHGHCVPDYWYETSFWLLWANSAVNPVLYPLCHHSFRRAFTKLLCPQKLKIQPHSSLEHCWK

What is called half-life is the time in which the quantity being followed falls by half. By Cmax is commonly meant the highest concentration seen after dosing. Consider `CN1CCN(C(=O)c2cc3cc(Cl)sc3[nH]2)CC1`, for which the Kb on Histamine H4 receptor [1] is 12.6 nM. In addition, the results for the half-life in series [2], in series [4] and in series [5] were 6 min, 0.783 h and 0.883 h, respectively. Moreover, the Cmax in the series on Rattus norvegicus [3] was less than 100 nM.

On to `CN1CCN(C(=O)c2cc3c(Cl)c(Cl)ccc3[nH]2)CC1`, for which the Kb at Histamine H4 receptor [1] was 6.31 nM. Usually Ki stands for a dissociation constant, usually derived from enzyme kinetics or from competition with a known ligand. Regarding `Cc1cc(Cl)c2[nH]c(C(=O)N3CCN(C)CC3)cc2c1`, the Kb on Histamine H4 receptor [1] is 50.1 nM. Moreover, the Ki at Histamine H4 receptor [6] was 33 nM. `Cc1cc(C)c2[nH]c(C(=O)N3CCN(C)CC3)cc2c1`: at Histamine H4 receptor [1], the Kb was 31.6 nM.

On to `CN1CCN(C(=O)c2nc3cc(F)ccc3[nH]2)CC1`, for which the Kb at Histamine H4 receptor [1] is 50.1 nM. The Ki on Histamine H4 receptor [6] is 19 nM. `CN1CCN(C(=O)c2cc3c(Br)cccc3[nH]2)CC1`: the Kb at Histamine H4 receptor [1] is 158 nM. Still for that read-out and setting: in the case of `Cc1c(Cl)sc2cc(C(=O)N3CCN(C)CC3)[nH]c12` it was 20 nM. Still for that read-out and setting: in the case of `Cc1csc2cc(C(=O)N3CCN(C)CC3)[nH]c12` it was 31.6 nM.

In the case of `CN1CCN(C(=O)c2nc3cc(C(F)(F)F)ccc3[nH]2)CC1`, at Histamine H4 receptor [6], the Ki worked out at 427 nM. Take `Cc1cc(Cl)c2nc(C(=O)N3CCN(C)CC3)[nH]c2c1`: on Histamine H4 receptor [1], the Kb was 126 nM. Further, at Histamine H4 receptor [6], the Ki was 23 nM. In the case of `CN1CCN(C(=O)c2nc3cc(Cl)cc(Cl)c3[nH]2)CC1`, at Histamine H4 receptor [6], the Ki is 136 nM. In the case of `Cc1ccc2[nH]c(C(=O)N3CCN(C)CC3)cc2c1`, at Histamine H4 receptor [1], the Kb was 20 nM. Turning to `CN1CCN(C(=O)c2cc3cc(O)ccc3[nH]2)CC1`, the Kb at Histamine H4 receptor [1] is 79.4 nM. As for `CN1CCN(C(=O)c2cc3cc(Br)ccc3[nH]2)CC1`, the Kb at Histamine H4 receptor [1] is 15.8 nM. `CN1CCN(C(=O)c2nc3c(F)c(F)ccc3[nH]2)CC1`: the Kb on Histamine H4 receptor [1] is 79.4 nM. Besides, the Ki at Histamine H4 receptor [6] was 49 nM. In the same order, the values of `CN1CCN(C(=O)c2nc3ccccc3[nH]2)CC1` are 63.1 nM and 35 nM. `Cc1cccc2[nH]c(C(=O)N3CCN(C)CC3)nc12`: the Kb on Histamine H4 receptor [1] was 25.1 nM. Besides, the inhibitory constant (Ki) at Histamine H4 receptor [6] was 30 nM. `CN1CCN(C(=O)c2cc3cccc(N)c3[nH]2)CC1`: the Kb at Histamine H4 receptor [1] is 7.94 nM. On to `CN1CCN(C(=O)c2cc3sccc3[nH]2)CC1`, for which the Ki at Histamine H4 receptor [6] amounted to 90 nM. Broadly, the bioavailability is the share of a dose that reaches the circulation, judged against a reference dose that is usually intravenous. Lower therefore signals little systemic uptake. For `CN1CCN(C(=O)c2cc3cc(Cl)ccc3[nH]2)CC1` [JNJ-7777120], in series [7], the bioavailability worked out at 22%. Further, the half-life in series [8] was 1.67 h; in [9], 0.075 h; in [10] it was 2.3 h; in series [4], 1.07 h; in series [5], 0.467 h. Moreover, the highest level in the series with Rattus norvegicus [3] (Cmax) was 1800 nM. This compound also showed an AUC in the series with Rattus norvegicus [11] of 7 uM.h/L. In the case of `CN1CCN(C(=O)c2cc3sc(Cl)cc3[nH]2)CC1`, the Kb on Histamine H4 receptor [1] was 50.1 nM. For `CN1CCN(C(=O)c2nc3cc(Cl)ccc3[nH]2)CC1`, the Kb at Histamine H4 receptor [1] was 20 nM. This compound gave a bioavailability in [7] of 27%. Moreover, the Ki on Histamine H4 receptor [6] turned out to be 26 nM; at Histamine H3 receptor it was 14100 nM. In addition, the half-life was 1.67 h in series [8]; 0.2 h in series [9]; 1 h in series [10]; 1.47 h in [4]; 1.67 h in series [5]. Further, in the series with Rattus norvegicus [3], the concentration peaked (Cmax) at 1800 nM. In the series on Rattus norvegicus [11], this compound came in with an AUC of 2.1 uM.h/L. By pA2 is commonly meant a measure of antagonist potency on a negative log scale. The low end stands for a weaker antagonist, the high end for a more potent antagonist. `Cc1cccc2cc(C(=O)N3CCN(C)CC3)[nH]c12` yielded a pA2 on Histamine H4 receptor [1] of 7.9. For `CN1CCN(C(=O)c2cc3cc(Cl)cc(Cl)c3[nH]2)CC1`, on Histamine H4 receptor [1], the Kb is 10 nM. `Cc1c(F)ccc2[nH]c(C(=O)N3CCN(C)CC3)nc12`: on Histamine H4 receptor [1], the Kb was 15.8 nM. Moreover, the Ki on Histamine H4 receptor [6] is 7 nM. `CN1CCN(C(=O)c2cc3ccsc3[nH]2)CC1`: the Ki on Histamine H4 receptor [6] is 90 nM. For `CN1CCN(C(=O)c2cc3cc(F)cc(F)c3[nH]2)CC1`, on Histamine H4 receptor [1], the Kb was 20 nM. As for `CN1CCN(C(=O)c2cc3cc(C(F)(F)F)ccc3[nH]2)CC1`, the Ki on Histamine H4 receptor [6] stood at 412 nM. On to `O=C(c1cc2ccccc2[nH]1)N1CCNCC1`, for which the affinity at Histamine H3 receptor, expressed as Ki, was 9000 nM. For `CN1CCN(C(=O)c2cc3cc(F)ccc3[nH]2)CC1`, on Histamine H4 receptor [1], the Kb is 20 nM. As to `Cc1c(F)ccc2[nH]c(C(=O)N3CCN(C)CC3)cc12`, the Kb on Histamine H4 receptor [1] is 20 nM. The Ki at Histamine H4 receptor [6] is 27 nM. As to `CN1CCN(C(=O)c2cc3cccc(Cl)c3[nH]2)CC1`, the Kb on Histamine H4 receptor [1] is 79.4 nM. As to `CN1CCN(C(=O)c2nc3c(N)cccc3[nH]2)CC1`, the Ki at Histamine H4 receptor [6] amounted to 244 nM. As for `CN1CCN(C(=O)c2cc3cccc(Br)c3[nH]2)CC1`, the Kb at Histamine H4 receptor [1] is 126 nM.
